# Measured values reported in US8846710B2, “Method of preferentially inducing the biosynthesis of interferon” (3M Innovative Properties Company, priority 2005, dated 2014).
# Assays:
# interferon (α) (IFN-α) = test: Cytokine induction in human cells: IFN-α secreted by PBMC into culture media (ELISA); format: cell-based; settings: for Maximal Response IFN / Minimum Effective Concentration IFN / minimal effective concentration: human PBMC; for Maximal Response IFN / Minimum Effective Concentration IFN: median where tested in more than one experiment; for minimal effective concentration: lowest tested concentration inducing IFN-α over usually 20 pg/mL, median where more than one experiment, read-out: Minimum Effective Concentration (μM) IFN; for Maximal Response (pg/mL) IFN: maximal response in dose response curve, median
# Source text: (§1) Cytokine Induction in Human Cells
# (§2) An in vitro human blood cell system is used to assess cytokine induction. Activity is based on the measurement of interferon (α) and tumor necrosis factor (α) (IFN-α and TNF-α, respectively) secreted into culture media as described by Testerman et. al. in “Cytokine Induction by the Immunomodulators Imiquimod and S-27609”, Journal of Leukocyte Biology, 58, 365-372 (September, 1995).
# (§3) Blood Cell Preparation for Culture
# (§4) Whole blood from healthy human donors is collected by venipuncture into vacutainer tubes or syringes containing EDTA. Peripheral blood mononuclear cells (PBMC) are separated from whole blood by density gradient centrifugation using HISTOPAQUE-1077 (Sigma, St. Louis, Mo.) or Ficoll-Paque Plus (Amersham Biosciences Piscataway, N.J.). Blood is diluted 1:1 with Dulbecco's Phosphate Buffered Saline (DPBS) or Hank's Balanced Salts Solution (HBSS). Alternately, whole blood is placed in Accuspin (Sigma) or LeucoSep (Oreiner Bio-One, Inc., Longwood, Fla.) centrifuge frit tubes containing density gradient medium. The PBMC layer is collected and washed twice with DPBS or HBSS and re-suspended at 4×10^6 cells/mL in RPMI complete. The PBMC suspension is added to 96 well flat bottom sterile tissue culture plates containing an equal volume of RPMI complete media containing test compound.
# (§5) The compounds are solubilized in dimethyl sulfoxide (DMSO). The DMSO concentration should not exceed a final concentration of 1% for addition to the culture wells. The compounds are generally tested at concentrations ranging from 30-0.014 μM. Controls include cell samples with media only, cell samples with DMSO only (no compound), and cell samples with reference compound.
# (§6) The solution of test compound is added at 60 μM to the first well containing RPMI complete and serial 3 fold dilutions are made in the wells. The PBMC suspension is then added to the wells in an equal volume, bringing the test compound concentrations to the desired range (usually 30-0.014 μM). The final concentration of PBMC suspension is 2×10^6 cells/mL. The plates are covered with sterile plastic lids, mixed gently and then incubated for 18 to 24 hours at 37° C. in a 5% carbon dioxide atmosphere.
# (§7) Following incubation the plates are centrifuged for 10 minutes at 1000 rpm (approximately 200×g) at 4° C. The cell-free culture supernatant is removed and transferred to sterile polypropylene tubes. Samples are maintained at −30 to −70° C. until analysis. The samples are analyzed for IFN-α by ELISA and for TNF-α by IGEN/BioVeris Assay.
# (§8) Interferon (α) and Tumor Necrosis Factor (α) Analysis
# IFN-α concentration is determined with a human multi-subtype calorimetric sandwich ELISA (Catalog Number 41105) from PBL Biomedical Laboratories, Piscataway, N.J. Results are expressed in pg/mL.
# (§9) In total, the data output of the assay consists of concentration values of TNF-α and IFN-α (y-axis) as a function of compound concentration (x-axis).
# Analysis of the data has two steps. First, the greater of the mean DMSO (DMSO control wells) or the experimental background (usually 20 pg/mL for IFN-α and 40 pg/mL for TNF-α) is subtracted from each reading. If any negative values result from background subtraction, the reading is reported as “*”, and is noted as not reliably detectable. In subsequent calculations and statistics, “*”, is treated as a zero. Second, all background subtracted values are multiplied by a single adjustment ratio to decrease experiment to experiment variability. The adjustment ratio is the area of the reference compound in the new experiment divided by the expected area of the reference compound based on the past 61 experiments (unadjusted readings). […] The reference compound used is 2-[4-amino-2-ethoxymethyl-6,7,8,9-tetrahydro-α,α-dimethyl-1H-imidazo[4,5-c]quinolin-1-yl]ethanol hydrate (U.S. Pat. No. 5,352,784; Example 91) and the expected area is the sum of the median dose values from the past 61 experiments. […]
# [1] = test system: tumor necrosis factor (α) (TNF-α); test: Cytokine induction in human cells: TNF-α secreted by PBMC into culture media (ORIGEN M-Series immunoassay); format: cell-based; design: key to Maximal Response (pg/mL) TNF / Maximal Response TNF: If any negative values result from background subtraction, the reading is reported as “*”, and is noted as not reliably detectable; settings: for Minimum Effective Concentration TNF / Maximal Response TNF / minimal effective concentration: human PBMC; for Minimum Effective Concentration TNF: median where tested in more than one experiment; for Maximal Response TNF / Maximal Response (pg/mL) TNF: median; for minimal effective concentration: lowest tested concentration inducing TNF-α over usually 40 pg/mL, median where more than one experiment, read-out: Minimum Effective Concentration (μM) TNF; for Maximal Response (pg/mL) TNF: maximal response in dose response curve
# Source text: as §1, §2, §3, §4, §5, §6, §7, §8
# The TNF-α concentration is determined by ORIGEN M-Series Immunoassay and read on an IGEN M-8 analyzer from BioVeris Corporation, formerly known as IGEN International, Gaithersburg, Md. The immunoassay uses a human TNF-α capture and detection antibody pair (Catalog Numbers AHC3419 and AHC3712) from Biosource International, Camarillo, Calif. Results are expressed in pg/mL.
# as §9
# Analysis of the data has two steps. First, the greater of the mean DMSO (DMSO control wells) or the experimental background (usually 20 pg/mL for IFN-α and 40 pg/mL for TNF-α) is subtracted from each reading. If any negative values result from background subtraction, the reading is reported as “*”, and is noted as not reliably detectable. In subsequent calculations and statistics, “*”, is treated as a zero. Second, all background subtracted values are multiplied by a single adjustment ratio to decrease experiment to experiment variability. The adjustment ratio is the area of the reference compound in the new experiment divided by the expected area of the reference compound based on the past 61 experiments (unadjusted readings). […]
# [2] = Table 11, * = TNF below experimental background of 40 pg/mL
# [3] = Table 10, * = below experimental background level
# [4] = Table 8, background-subtracted, reference-adjusted
SMILES,Maximal Response IFN (interferon (α) (IFN-α); Table 11) [pg/mL],Minimum Effective Concentration IFN (interferon (α) (IFN-α); Table 11) [µM],Minimum Effective Concentration TNF ([1]; Table 11) [µM],"Maximal Response TNF [1, 2]",minimal effective concentration (interferon (α) (IFN-α); Table 10) [µM],Maximal Response (pg/mL) IFN (interferon (α) (IFN-α); [3]) [pg/mL],minimal effective concentration ([1]; Table 10) [µM],"Maximal Response (pg/mL) TNF [1, 3]",other results
CCc1nc2c(N)nc3ccccc3c2n1CCNC(=O)CC(C)C [Analog 105],851,3.33,30,587 pg/mL,–,–,–,–,–
CCOCc1nc2c(N)nc3cc(-c4cncc(CO)c4)ccc3c2n1CC1CCN(C(=O)C(C)C)CC1 [Analog 44],–,–,–,–,0.04,1382,1.11,3128 pg/mL,–
Nc1nc2ccccc2c2c1nc(CCO)n2CCCCNC(=O)c1cnc2ccccc2n1 [Example 117],5520,0.37,3.33,1938 pg/mL,–,–,–,–,–
"CCOCc1nc2c(N)nc3cccnc3c2n1CC(C)(C)NS(C)(=O)=O [Analog 130, N-[2-(4-amino-2-ethoxoxymethyl-1H-imidazo[4,5-c][1,5]naphthyridin-1-yl)-1,1-dimethylethyl]methanesulfonamide]",–,–,–,–,–,–,–,–,Minimum Effective Concentration IFN (interferon (α) (IFN-α); Table 12): 0.04 µM; Minimum Effective Concentration TNF ([1]; Table 12): 0.37 µM
COCCc1nc2c(N)nc3ccccc3c2n1CCCNC(=O)NC(C)C [Analog 83],1289,0.12,1.11,1259 pg/mL,–,–,–,–,–
COCCc1nc2c(N)nc3ccccc3c2n1CCCN [Analog 86],3433,0.04,1.11,1674 pg/mL,–,–,–,–,–
CCOCc1nc2c(N)nc3cc(-c4cccnc4)ccc3c2n1CCCCNC(=O)C1CCCC1 [Analog 35],–,–,–,–,0.04,969,0.37,1366 pg/mL,–
"CC(C)(O)Cn1c(CO)nc2c(N)nc3cccnc3c21 [Example 148, 1-(4-Amino-2-hydroxymethyl-1H-imidazo[4,5-c][1,5]naphthyridin-1-yl)-2-methylpropan-2-ol]",–,–,–,–,–,–,–,–,"Maximal Response (pg/mL) IFN (interferon (α) (IFN-α); [4]): 3038 pg/mL; Maximal Response IFN (interferon (α) (IFN-α); Table 12): 2290 pg/mL; Maximal Response (pg/mL) TNF [1, 4]: 684 pg/mL; Maximal Response TNF ([1]; Table 12, * = below the experimental background of 40 pg/mL): 1316 pg/mL"
Cc1nc2c(N)nc3ccccc3c2n1CCCCNC(=O)N1CCOCC1 [Analog 53],1538,0.12,10,1400 pg/mL,–,–,–,–,–
CCCc1nc2c(N)nc3ccccc3c2n1CCCNS(C)(=O)=O [Analog 60],2148,1.11,10,109 pg/mL,–,–,–,–,–
CCOCc1nc2c(N)nc3cc(-c4cccc(C)c4)ccc3c2n1CC(C)(C)O [Analog 41],–,–,–,–,0.014,541,0.12,10184 pg/mL,–
CCc1nc2c(N)nc3ccccc3c2n1CCOCCN(C)S(C)(=O)=O [Analog 78],1803,0.12,1.11,2525 pg/mL,–,–,–,–,–
CC(C)Cn1c(CCO)nc2c(N)nc3cc(-c4cncc(CO)c4)ccc3c21 [Example 159],–,–,–,–,0.12,–,10,–,–
CCCCNC(=O)NCCCn1c(COCC)nc2c(N)nc3ccccc3c21 [Analog 97],827,0.37,3.33,963 pg/mL,–,–,–,–,–
CCCc1nc2c(N)nc3ccccc3c2n1CC(C)(C)NC(=O)NC(C)C [Analog 107],1428,1.11,3.33,6363 pg/mL,–,–,–,–,–
COCCc1nc2c(N)nc3ccccc3c2n1CCCCCS(C)(=O)=O [Analog 76],2695,0.014,1.11,6169 pg/mL,–,–,–,–,–
CCOCc1nc2c(N)nc3ccccc3c2n1CC(C)(C)CNS(C)(=O)=O [Analog 66],561,0.12,0.37,3768 pg/mL,–,–,–,–,–
COCCc1nc2c(N)nc3cc(-c4ccccc4)ccc3c2n1CC(C)(C)O [Analog 23],–,–,–,–,0.014,260,0.014,2296 pg/mL,–
COCCc1nc2c(N)nc3ccccc3c2n1CCCCNC(=O)c1cnc2ccccc2n1 [Analog 116],1129,0.014,0.04,7261 pg/mL,–,–,–,–,–
CCOCc1nc2c(N)nc3cc(-c4ccc(C)cc4)ccc3c2n1CC(C)(C)O [Analog 42],–,–,–,–,0.12,650,0.12,4456 pg/mL,–
COCCc1nc2c(N)nc3cc(-c4cncc(CO)c4)ccc3c2n1CC(C)C [Analog 27],–,–,–,–,0.014,1332,0.04,9563 pg/mL,–
Cc1cccc(-c2ccc3c(c2)nc(N)c2nc(CO)n(CC(C)(C)O)c23)c1 [Example 164],–,–,–,–,30,87,>30,*,–
Nc1nc2ccccc2c2c1nc(CCO)n2CCCCCCCCNC(=O)Nc1ccccc1 [Example 118],5177,0.37,>30,*,–,–,–,–,–
